How the values were obtained:
[1] = Pharmacokinetics of drug release from subdermal implants in Hu‐PBL mice (serum, HPLC); type: in vivo; details: end of study sera (Day 49 nanoformulations, Day 56 implants) vs EC90 in HIV cell culture
Procedure: Hu‐mice were anesthetized by i.p. injection of ketamine (80 mg/kg) and xylazine (12 mg/kg) in PBS (10 ml/kg) based on individual mouse body weight. After anesthetizing, approximately 1–2 cm square of the dorsal skin was shaved using an electric hair clipper, the area was cleaned with ethanol and disinfected with Betadine. Using a sterile disposable surgical blade, an incision of 4–5 mm was made through the skin. Gently, 2 cm × 3 cm subcutaneous pockets were created with forceps and implants loaded with Compound I and EFdA were co‐inserted at the same site. The opening was sutured using absorbable sutures followed by subcutaneous administration of 0.05 mg/kg buprenorphine. The animals were kept warm using the temperature‐controlled heating pads until they regained consciousness. Toxicity was evaluated by clinical observations, cage‐side observations (twice daily), and body weight (at least weekly). […]
The data were plotted as a concentration‐time curve using PRISM 9.0 (GraphPad Software Inc., La Jolla, CA). […] was calculated using Graph pad prism where EC50 of each compound was used along with Hill slope of 1. The predicted area under the curve (AUC) for drug concentration in blood serum against time (AUC predicted) was calculated based on the linear trapezoid method.[29] AUC was also calculated for PVLs and CD4+ T‐cells in infection experiments. […]

[2] = test system: HERG ion channel; parameters: method as in PMID 28167742; details: cited from earlier work
[3] = test system: HIV‐1; details: cited from earlier work
[4] = test system: HIV‐1; experiment: Antiviral potency in cellular assays / HIV cell culture; type: cell-based; details: Human immunodeficiency virus 1, in Discussion

| Compound | serum concentration fold above EC90 [1] | inhibition of the HERG ion channel [2] | synergy of Compound I with EFdA ([3]; cell culture) | activity against wild‐type HIV‐1 strains and drug resistant variants ([3]; wild‐type, Y181C and K103N) | EC90 [4] [ng/mL] | EC90 ([4]; from EC50 with Hill slope of 1) [nM] |
| --- | --- | --- | --- | --- | --- | --- |
| N#Cc1ccc2c(Oc3ccc(F)cc3OCCn3ccc(=O)[nH]c3=O)cc(F)cc2c1 [Compound I] | approximately 100 fold | no inhibition | potent synergy | active in the nanomolar range | 10 | 25.2 |
| C#C[C@]1(CO)O[C@@H](n2cnc3c(N)nc(F)nc32)C[C@@H]1O [EFdA, 4′‐ethynyl‐2‐fluoro‐2′‐deoxyadenosine, reference compound] | ~1100 fold | – | – | – | 5 | 17.1 |

— paper PMC8780078, “Long‐acting and extended‐release implant and nanoformulations with a synergistic antiretroviral two‐drug combination controls HIV‐1 infection in a humanized mouse model” (Bioengineering & Translational Medicine, 2021)
